Laboratory results published in patent US9446039B2, “Aminoheteroaryl compounds as MTH1 inhibitors” (CEMM—FORSCHUNGSZENTRUM FÜR MOLEKULARE MEDIZIN GMBH, priority 2012, dated 2016).

Key:
Type in all cases: binding
[1] = molecular target: SW480 colon carcinoma cells lysate proteins (Homo sapiens, UniProt O00571); conditions: PreyGene DDX3X
[2] = molecular target: T1, SW480 colon carcinoma cells lysate proteins (Homo sapiens, UniProt O43175); conditions: PreyGene PHGDH
T1 sequence (O43175 1-533): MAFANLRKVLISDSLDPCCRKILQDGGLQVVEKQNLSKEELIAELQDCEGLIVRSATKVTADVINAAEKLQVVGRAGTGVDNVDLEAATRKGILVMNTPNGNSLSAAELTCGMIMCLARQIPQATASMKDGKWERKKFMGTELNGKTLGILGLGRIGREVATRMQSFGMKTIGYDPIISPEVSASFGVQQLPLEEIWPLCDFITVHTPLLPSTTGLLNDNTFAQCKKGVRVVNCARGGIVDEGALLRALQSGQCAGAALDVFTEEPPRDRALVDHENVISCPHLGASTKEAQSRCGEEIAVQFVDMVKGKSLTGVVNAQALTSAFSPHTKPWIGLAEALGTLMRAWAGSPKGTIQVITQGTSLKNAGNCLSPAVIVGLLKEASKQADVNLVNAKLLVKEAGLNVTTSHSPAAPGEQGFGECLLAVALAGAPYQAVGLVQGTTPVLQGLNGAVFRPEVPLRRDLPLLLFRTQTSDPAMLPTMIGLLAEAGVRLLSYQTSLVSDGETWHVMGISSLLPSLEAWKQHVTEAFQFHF

[3] = molecular target: SW480 colon carcinoma cells lysate proteins (Homo sapiens, UniProt P12814); conditions: PreyGene ACTN1
Sequence of SW480 colon carcinoma cells lysate proteins (Homo sapiens, UniProt P12814) (P12814 whole entry): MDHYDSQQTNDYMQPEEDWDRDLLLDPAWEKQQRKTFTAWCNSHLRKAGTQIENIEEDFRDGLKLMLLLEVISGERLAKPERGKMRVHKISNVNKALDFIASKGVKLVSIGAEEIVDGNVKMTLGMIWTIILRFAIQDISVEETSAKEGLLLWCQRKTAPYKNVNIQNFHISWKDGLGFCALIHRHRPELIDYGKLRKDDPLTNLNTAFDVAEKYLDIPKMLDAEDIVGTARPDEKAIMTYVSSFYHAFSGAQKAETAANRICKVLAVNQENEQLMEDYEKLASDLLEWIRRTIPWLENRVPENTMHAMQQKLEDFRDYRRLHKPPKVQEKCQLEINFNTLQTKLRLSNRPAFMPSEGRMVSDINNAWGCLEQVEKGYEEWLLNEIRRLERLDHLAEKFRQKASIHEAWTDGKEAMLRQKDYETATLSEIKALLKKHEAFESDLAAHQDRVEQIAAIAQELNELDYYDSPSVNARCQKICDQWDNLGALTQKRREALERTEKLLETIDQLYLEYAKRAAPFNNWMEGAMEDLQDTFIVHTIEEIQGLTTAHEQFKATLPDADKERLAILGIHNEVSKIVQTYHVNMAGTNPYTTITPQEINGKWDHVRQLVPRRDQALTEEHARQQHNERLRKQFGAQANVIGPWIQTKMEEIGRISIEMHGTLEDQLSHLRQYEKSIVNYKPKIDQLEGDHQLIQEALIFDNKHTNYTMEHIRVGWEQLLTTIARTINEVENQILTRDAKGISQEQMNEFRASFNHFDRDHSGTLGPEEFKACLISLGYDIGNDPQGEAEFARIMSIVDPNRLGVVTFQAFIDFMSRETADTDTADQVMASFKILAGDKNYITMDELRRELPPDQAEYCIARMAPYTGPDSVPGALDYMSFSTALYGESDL

[4] = molecular target: SW480 colon carcinoma cells lysate proteins (Homo sapiens, UniProt P22626); conditions: PreyGene HNRNPA2B1
Sequence of SW480 colon carcinoma cells lysate proteins (Homo sapiens, UniProt P22626) (P22626 whole entry): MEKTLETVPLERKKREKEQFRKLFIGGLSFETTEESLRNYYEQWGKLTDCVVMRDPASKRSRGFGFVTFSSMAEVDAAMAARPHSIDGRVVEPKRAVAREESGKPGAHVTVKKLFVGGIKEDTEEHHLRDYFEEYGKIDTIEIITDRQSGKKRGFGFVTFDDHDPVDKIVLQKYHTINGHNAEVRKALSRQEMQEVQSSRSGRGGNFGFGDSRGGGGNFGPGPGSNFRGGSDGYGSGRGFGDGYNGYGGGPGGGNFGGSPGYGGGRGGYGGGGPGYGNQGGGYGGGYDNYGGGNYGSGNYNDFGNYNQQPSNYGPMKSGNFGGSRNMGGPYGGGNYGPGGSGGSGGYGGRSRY

[5] = molecular target: SW480 colon carcinoma cells lysate proteins (Homo sapiens, UniProt P62136); conditions: PreyGene PPP1CA
Sequence of SW480 colon carcinoma cells lysate proteins (Homo sapiens, UniProt P62136) (P62136 whole entry): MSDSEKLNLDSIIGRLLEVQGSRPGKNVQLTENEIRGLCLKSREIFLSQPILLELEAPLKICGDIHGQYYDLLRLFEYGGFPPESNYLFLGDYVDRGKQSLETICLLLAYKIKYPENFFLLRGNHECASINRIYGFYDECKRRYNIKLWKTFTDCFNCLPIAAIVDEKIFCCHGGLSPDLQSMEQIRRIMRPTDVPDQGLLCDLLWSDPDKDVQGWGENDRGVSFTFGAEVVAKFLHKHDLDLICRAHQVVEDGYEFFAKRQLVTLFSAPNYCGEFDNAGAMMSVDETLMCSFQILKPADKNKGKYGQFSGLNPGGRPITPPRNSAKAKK

[6] = molecular target: SW480 colon carcinoma cells lysate proteins (Homo sapiens, UniProt Q07812); conditions: PreyGene BAX; SW480 cells
Sequence of SW480 colon carcinoma cells lysate proteins (Homo sapiens, UniProt Q07812) (Q07812 whole entry): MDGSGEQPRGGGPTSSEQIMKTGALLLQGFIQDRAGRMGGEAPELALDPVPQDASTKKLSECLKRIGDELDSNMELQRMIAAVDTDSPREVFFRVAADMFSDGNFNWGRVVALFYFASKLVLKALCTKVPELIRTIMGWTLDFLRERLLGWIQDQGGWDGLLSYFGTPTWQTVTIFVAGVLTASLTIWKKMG

[7] = molecular target: SW480 colon carcinoma cells lysate proteins (Homo sapiens, UniProt Q13200); conditions: PreyGene PSMD2
Sequence of SW480 colon carcinoma cells lysate proteins (Homo sapiens, UniProt Q13200) (Q13200 whole entry): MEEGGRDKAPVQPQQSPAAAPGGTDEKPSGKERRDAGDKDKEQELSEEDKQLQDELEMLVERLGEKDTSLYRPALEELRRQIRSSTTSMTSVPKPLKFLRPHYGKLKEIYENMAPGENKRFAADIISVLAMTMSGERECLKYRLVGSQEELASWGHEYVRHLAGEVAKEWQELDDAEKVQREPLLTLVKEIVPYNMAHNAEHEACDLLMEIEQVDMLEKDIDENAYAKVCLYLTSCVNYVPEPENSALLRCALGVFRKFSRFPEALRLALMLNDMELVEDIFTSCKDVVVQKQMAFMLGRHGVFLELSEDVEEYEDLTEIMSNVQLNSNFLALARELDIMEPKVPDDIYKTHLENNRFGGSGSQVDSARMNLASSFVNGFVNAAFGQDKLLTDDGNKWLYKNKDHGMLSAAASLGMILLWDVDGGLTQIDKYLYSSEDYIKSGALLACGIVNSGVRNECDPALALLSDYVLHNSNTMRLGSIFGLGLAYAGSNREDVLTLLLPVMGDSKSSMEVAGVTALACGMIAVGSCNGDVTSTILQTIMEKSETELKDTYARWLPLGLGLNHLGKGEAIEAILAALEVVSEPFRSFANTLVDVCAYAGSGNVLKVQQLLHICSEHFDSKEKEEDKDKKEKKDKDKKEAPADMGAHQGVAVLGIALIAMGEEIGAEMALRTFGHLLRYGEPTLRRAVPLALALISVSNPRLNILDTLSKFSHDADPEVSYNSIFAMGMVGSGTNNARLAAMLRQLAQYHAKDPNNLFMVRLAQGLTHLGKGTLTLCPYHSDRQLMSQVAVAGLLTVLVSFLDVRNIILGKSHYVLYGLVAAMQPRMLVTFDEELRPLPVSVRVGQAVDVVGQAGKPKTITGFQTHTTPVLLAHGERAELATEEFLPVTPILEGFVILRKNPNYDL

[8] = molecular target: T2, SW480 colon carcinoma cells lysate proteins (Homo sapiens, UniProt Q5XKE5); conditions: PreyGene KRT79; SW480 cells
T2 sequence (Q5XKE5 1-535): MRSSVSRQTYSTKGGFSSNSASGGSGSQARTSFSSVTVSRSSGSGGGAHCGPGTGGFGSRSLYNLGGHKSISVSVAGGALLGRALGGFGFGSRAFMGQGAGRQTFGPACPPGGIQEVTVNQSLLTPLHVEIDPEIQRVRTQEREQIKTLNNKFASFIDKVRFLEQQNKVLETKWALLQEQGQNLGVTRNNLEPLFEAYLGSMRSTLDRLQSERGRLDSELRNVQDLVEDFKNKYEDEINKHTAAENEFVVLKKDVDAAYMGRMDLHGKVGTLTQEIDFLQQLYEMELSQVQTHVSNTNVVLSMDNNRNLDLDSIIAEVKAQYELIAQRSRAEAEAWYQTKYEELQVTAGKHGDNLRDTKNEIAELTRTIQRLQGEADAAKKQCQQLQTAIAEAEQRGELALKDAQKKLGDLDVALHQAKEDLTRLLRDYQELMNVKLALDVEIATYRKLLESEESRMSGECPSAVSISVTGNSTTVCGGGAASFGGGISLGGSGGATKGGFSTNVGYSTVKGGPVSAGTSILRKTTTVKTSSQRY

[9] = molecular target: T3, SW480 colon carcinoma cells lysate proteins (Homo sapiens, UniProt Q9UHD8); conditions: PreyGene 09-Sep
T3 sequence (Q9UHD8 1-586): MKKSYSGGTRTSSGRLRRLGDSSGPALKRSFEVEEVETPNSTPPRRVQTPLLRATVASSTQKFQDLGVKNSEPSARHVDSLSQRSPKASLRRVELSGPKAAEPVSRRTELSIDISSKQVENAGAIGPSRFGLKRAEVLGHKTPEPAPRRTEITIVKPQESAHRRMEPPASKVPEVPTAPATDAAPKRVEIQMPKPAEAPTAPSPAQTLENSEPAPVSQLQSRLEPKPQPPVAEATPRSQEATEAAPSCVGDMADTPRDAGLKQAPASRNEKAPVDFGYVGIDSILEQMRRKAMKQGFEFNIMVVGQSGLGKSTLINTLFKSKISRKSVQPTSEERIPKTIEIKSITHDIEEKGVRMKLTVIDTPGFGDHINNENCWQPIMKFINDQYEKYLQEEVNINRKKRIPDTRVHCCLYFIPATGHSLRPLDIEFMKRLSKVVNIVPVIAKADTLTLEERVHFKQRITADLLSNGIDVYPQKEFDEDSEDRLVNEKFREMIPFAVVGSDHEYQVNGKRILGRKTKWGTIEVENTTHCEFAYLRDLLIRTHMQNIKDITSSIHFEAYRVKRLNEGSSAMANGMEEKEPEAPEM

Sequence of SW480 colon carcinoma cells lysate proteins (Homo sapiens, UniProt O00571) (O00571 whole entry): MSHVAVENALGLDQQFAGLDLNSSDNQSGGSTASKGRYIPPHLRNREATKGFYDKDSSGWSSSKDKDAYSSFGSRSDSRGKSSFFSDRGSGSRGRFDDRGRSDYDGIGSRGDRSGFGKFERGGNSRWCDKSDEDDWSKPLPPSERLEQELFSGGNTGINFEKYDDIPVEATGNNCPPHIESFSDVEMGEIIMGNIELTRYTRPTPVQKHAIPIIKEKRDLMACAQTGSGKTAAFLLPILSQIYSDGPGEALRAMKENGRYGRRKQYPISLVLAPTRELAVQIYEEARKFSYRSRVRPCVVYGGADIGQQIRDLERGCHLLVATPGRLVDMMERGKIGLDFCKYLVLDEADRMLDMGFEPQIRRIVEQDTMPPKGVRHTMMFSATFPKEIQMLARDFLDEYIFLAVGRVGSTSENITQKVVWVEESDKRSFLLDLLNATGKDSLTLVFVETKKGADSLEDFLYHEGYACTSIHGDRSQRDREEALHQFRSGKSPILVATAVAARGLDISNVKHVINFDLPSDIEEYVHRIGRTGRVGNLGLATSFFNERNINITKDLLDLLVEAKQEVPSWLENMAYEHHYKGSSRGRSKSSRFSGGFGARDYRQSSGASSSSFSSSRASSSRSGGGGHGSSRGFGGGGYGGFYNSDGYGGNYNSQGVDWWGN

With `C[C@H](Oc1cc(-c2cnn(C3CCNCC3)c2)cnc1N)c1c(Cl)ccc(F)c1Cl` [(5)-crizotinib] the AvgP [1] was 0.7764, the “SC.Exp. 1-1” value [1] was 2 and the “SC.Exp. 1-2” value [1] was 2. For the same compound, the “SC.Exp. 2-1” value [1] was 1, the “SC.Exp. 2-2” value [1] was 2 and the “Sum (SC.Exp.)” value [1] was 7. For the same compound, the AvgP [2] was 0.4081, the “SC.Exp. 1-1” value [2] was 5 and the “SC.Exp. 1-2” value [2] was 7. For the same compound, the “SC.Exp. 2-1” value [2] was 0, the “SC.Exp. 2-2” value [2] was 0 and the “Sum (SC.Exp.)” value [2] was 12. For the same compound, the AvgP [3] was 0.2142, the “SC.Exp. 1-1” value [3] was 3 and the “SC.Exp. 1-2” value [3] was 1. For the same compound, the “SC.Exp. 2-1” value [3] was 0, the “SC.Exp. 2-2” value [3] was 0 and the “Sum (SC.Exp.)” value [3] was 4. The AvgP [4] was 0.2944, the “SC.Exp. 1-1” value [4] was 2 and the “SC.Exp. 1-2” value [4] was 2. The “SC.Exp. 2-1” value [4] was 0, the “SC.Exp. 2-2” value [4] was 2 and the “Sum (SC.Exp.)” value [4] was 6. The AvgP [5] was 0.3721, the “SC.Exp. 1-1” value [5] was 2 and the “SC.Exp. 1-2” value [5] was 2. The “SC.Exp. 2-1” value [5] was 0, the “SC.Exp. 2-2” value [5] was 0 and the “Sum (SC.Exp.)” value [5] was 4. The AvgP [6] was 0, the “SC.Exp. 1-1” value [6] was 1 and the “SC.Exp. 1-2” value [6] was 1. For the same compound, the “SC.Exp. 2-1” value [6] was 1, the “SC.Exp. 2-2” value [6] was 1 and the “SC.Exp. Sum” value [6] was 4. The AvgP [7] was 0.4359, the “SC.Exp. 1-1” value [7] was 6 and the “SC.Exp. 1-2” value [7] was 5. The “SC.Exp. 2-1” value [7] was 0, the “SC.Exp. 2-2” value [7] was 0 and the “Sum (SC.Exp.)” value [7] was 11. The AvgP [8] was 0, the “SC.Exp. 1-1” value [8] was 0 and the “SC.Exp. 1-2” value [8] was 1. For the same compound, the “SC.Exp. 2-1” value [8] was 0, the “SC.Exp. 2-2” value [8] was 0 and the “SC.Exp. Sum” value [8] was 1. The AvgP [9] was 0.323, the “SC.Exp. 1-1” value [9] was 1 and the “SC.Exp. 1-2” value [9] was 2. For the same compound, the “SC.Exp. 2-1” value [9] was 0, the “SC.Exp. 2-2” value [9] was 2 and the “Sum (SC.Exp.)” value [9] was 5.
